For data set [1], the system named is HT-29 cells. Briefly: Sulforhodamine B (SRB) growth inhibition assay. It counts as cell-based, human. On the procedure: (§1) Cells were inoculated into 96-well plates in growth medium. After 24 h, cells were fixed with 10% trichloroacetic acid (TCA), to represent a measurement of the cell population at the time of drug addition (Tz). After incubation with vehicle (0.1% DMSO) or different concentrations of compound for 48 h (Tt), cells were fixed with 10% TCA and stained with 0.4% SRB. After staining, unbound SRB was removed by 1% acetic acid. Bound SRB was solubilized with 10 mM trizma base and the absorbance was measured at 515 nm. Percentage of growth inhibition was calculated as: 100−[(Tt-Tz)/(C-Tz)] ×100. Tt represents absorbance of compound-treated group, and C means absorbance of vehicle-treated group.

The subject of another data set is A549. In words: Sulforhodamine B (SRB) growth inhibition assay. It counts as cell-based, human. The conditions noted are these: A549, ± SE. How it is done: as §1
Another data set relates to HCT116. Briefly: Sulforhodamine B (SRB) growth inhibition assay. In kind it is cell-based, human. The conditions noted are these: HCT116, ± SE. How it is done:
as §1

Another data set relates to Hep3B. Briefly: Sulforhodamine B (SRB) growth inhibition assay. Particulars: ± SE. It counts as cell-based, human. On the procedure: as §1
Data set [2] has as its system total HDACs in HT-29 cells. Briefly: Fluorometric HDAC activity assay, total HDACs in cell lysates. Particulars: read-out: IC50 inhibition of total HDACs, HT-29 cells treated 24 h.
Procedure: (§2) Two different types of in vitro HDAC activity assays were used (with or without cells). Test compounds were incubated with individual recombinant HDAC isoforms (HDAC 1-9) and the assay was performed according to the manufacturer's protocol (BPS Biosciences, USA).
The subject of the next data set is HT-29 tumor xenograft. In words: HT-29 tumor xenograft model. In kind it is in vivo, athymic nude mice. The conditions noted are these: 100 or 200 mg/kg qd by gavage, 18 days. How it is done:
Tumor volumes were calculated using caliper measurements twice per week using the formula volume (mm^3) = (length × width^2)/2. Body weights were measured daily during the first week and twice per week thereafter. […] The protocols of the in vivo study were approved by the Animal Care and User Committee at National Taiwan University.

Another data set concerns HUVEC cells. In words: MTT cell viability assay in normal cells. It counts as cell-based, human. Particulars: 24 h. (Formazan colour is commonly taken as a measure of viable cells.)
A further data set deals with HDAC2 (Homo sapiens, UniProt Q92769). Briefly: Fluorometric HDAC activity assay, recombinant isoform.
For the next data set, the system named is PC3. In words: Sulforhodamine B (SRB) growth inhibition assay. It counts as cell-based. Particulars: Homo sapiens, PC-3; PC3, ± SE. On the procedure:
as §1, with “Bound SRB was solubilized with 10 mM trizma base and the absorbance was measured at 515 nm.” left out

In the next data set the target is T1, HDAC7 (Homo sapiens, UniProt Q8WUI4).
T1 sequence (Q8WUI4 1-952): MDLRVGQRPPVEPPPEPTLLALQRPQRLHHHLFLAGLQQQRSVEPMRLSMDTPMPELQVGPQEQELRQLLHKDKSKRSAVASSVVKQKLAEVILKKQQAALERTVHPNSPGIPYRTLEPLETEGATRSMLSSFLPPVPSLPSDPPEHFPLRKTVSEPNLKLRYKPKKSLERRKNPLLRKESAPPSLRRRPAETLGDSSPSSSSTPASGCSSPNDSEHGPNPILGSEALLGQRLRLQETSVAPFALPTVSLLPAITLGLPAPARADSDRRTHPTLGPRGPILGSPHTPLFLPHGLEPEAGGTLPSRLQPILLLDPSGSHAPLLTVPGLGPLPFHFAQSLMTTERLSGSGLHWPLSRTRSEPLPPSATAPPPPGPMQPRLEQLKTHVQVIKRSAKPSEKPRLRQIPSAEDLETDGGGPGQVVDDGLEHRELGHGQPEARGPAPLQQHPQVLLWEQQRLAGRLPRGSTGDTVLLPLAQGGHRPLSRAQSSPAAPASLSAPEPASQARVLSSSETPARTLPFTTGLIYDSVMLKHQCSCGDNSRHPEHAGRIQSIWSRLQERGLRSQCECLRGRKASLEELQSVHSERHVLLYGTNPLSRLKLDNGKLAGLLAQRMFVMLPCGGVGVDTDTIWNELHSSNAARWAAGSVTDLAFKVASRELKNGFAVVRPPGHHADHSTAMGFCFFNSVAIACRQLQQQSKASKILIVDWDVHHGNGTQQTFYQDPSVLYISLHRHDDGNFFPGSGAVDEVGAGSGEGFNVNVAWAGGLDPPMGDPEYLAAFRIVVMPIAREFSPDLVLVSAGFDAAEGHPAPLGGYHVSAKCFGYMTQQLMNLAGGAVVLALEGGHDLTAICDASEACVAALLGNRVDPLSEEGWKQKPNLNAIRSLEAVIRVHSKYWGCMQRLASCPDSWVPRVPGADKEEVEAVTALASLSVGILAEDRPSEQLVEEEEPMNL
In words: Fluorometric HDAC activity assay, recombinant isoform.

The target in the next data set is HDAC5 (Homo sapiens, UniProt Q9UQL6). The data set is described as above.
The subject of data set [3] is HT-29 cells. Briefly: MTT cell viability assay. It counts as cell-based. Particulars: Homo sapiens, 24 h, read-out: IC50 (cell death, MTT). How it is done: Cells were seeded in 96-well plates in growth medium overnight. Cells were treated with vehicle (0.1% DMSO) or different concentrations of compound for 24 h, then incubated with MTT reagent at 37°C for 1 h. After incubation, the insoluble formazan produced in living cells. The formazan crystals were dissolved with DMSO and the absorbance was measured at 550 nm.

A further data set concerns the target HDAC9 (Homo sapiens, UniProt Q9UKV0). Briefly: Fluorometric HDAC activity assay, recombinant isoform.
The next data set addresses HDAC4 (Homo sapiens, UniProt P56524). Described as above.
In data set [4] the test system is HT-29 cells. Briefly: Cell death detection ELISA (DNA fragmentation). In kind it is cell-based, human. Particulars: 24 h, compared with SAHA. How it is done: Cell Death Detection ELISA Kit (Roche Diagnostics, Switzerland) was used to analyze drug-induced apoptosis. […] Adherent cells were collected and the assay was performed according to the manufacturer's protocol.

Another data set has as its target T2, HDAC8 (Homo sapiens, UniProt Q9BY41).
T2 sequence (Q9BY41 1-377): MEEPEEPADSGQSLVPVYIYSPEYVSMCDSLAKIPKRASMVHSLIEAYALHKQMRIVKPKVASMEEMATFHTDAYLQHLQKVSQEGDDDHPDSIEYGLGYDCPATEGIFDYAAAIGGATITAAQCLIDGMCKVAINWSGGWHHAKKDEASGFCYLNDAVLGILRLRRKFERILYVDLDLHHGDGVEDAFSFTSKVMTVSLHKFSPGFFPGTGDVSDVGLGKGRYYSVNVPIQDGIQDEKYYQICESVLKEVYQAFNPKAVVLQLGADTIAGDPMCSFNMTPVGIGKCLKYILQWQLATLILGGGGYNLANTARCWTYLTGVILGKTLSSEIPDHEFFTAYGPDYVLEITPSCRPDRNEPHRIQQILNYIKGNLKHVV
In words: Fluorometric HDAC activity assay, recombinant isoform.

The target of another data set is T3, HDAC6 (Homo sapiens, UniProt Q9UBN7).
T3 sequence (Q9UBN7 1-1215): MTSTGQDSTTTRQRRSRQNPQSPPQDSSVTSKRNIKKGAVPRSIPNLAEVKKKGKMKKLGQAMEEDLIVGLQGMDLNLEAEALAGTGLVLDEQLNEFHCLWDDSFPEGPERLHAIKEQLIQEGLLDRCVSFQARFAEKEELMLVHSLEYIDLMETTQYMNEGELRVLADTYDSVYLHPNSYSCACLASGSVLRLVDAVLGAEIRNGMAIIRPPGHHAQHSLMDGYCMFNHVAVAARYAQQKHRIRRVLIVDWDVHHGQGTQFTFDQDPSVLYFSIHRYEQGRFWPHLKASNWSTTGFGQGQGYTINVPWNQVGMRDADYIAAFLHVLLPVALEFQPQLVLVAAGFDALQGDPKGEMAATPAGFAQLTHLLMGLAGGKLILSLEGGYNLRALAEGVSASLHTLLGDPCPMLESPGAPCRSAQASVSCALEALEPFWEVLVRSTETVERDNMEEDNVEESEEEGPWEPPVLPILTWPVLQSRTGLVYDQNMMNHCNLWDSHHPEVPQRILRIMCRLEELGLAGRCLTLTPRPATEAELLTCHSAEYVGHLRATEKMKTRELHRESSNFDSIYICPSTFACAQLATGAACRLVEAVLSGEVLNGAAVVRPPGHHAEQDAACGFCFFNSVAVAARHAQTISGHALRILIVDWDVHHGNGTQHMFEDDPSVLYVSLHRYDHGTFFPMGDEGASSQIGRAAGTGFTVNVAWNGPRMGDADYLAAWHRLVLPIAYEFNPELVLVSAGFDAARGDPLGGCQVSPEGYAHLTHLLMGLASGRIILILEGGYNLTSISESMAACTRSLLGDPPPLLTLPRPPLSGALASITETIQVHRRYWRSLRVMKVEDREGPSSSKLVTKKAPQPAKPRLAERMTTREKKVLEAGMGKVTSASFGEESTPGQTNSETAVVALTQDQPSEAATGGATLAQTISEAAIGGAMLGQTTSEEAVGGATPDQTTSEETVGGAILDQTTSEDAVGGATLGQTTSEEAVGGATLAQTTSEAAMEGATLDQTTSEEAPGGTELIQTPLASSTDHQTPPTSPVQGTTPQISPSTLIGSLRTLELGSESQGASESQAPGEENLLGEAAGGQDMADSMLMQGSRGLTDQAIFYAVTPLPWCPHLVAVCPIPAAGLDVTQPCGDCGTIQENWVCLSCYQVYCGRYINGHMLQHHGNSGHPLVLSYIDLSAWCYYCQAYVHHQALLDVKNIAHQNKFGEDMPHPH
Described as above.

Another data set addresses HDAC1 (Homo sapiens, UniProt Q13547). Described as above.
In data set [5] the test system is HT-29 cells. More on the design: method as in PMID 10200307. The conditions noted are these: cited from earlier work.

Like-named read-outs stand apart in the source and are kept apart here. Some results are limits rather than exact numbers.

As a reminder, the GI50 is the concentration giving 50% growth inhibition. By IC50 is commonly meant the concentration needed to halve the response being measured.

Sequence of HDAC1 (Q13547 whole entry): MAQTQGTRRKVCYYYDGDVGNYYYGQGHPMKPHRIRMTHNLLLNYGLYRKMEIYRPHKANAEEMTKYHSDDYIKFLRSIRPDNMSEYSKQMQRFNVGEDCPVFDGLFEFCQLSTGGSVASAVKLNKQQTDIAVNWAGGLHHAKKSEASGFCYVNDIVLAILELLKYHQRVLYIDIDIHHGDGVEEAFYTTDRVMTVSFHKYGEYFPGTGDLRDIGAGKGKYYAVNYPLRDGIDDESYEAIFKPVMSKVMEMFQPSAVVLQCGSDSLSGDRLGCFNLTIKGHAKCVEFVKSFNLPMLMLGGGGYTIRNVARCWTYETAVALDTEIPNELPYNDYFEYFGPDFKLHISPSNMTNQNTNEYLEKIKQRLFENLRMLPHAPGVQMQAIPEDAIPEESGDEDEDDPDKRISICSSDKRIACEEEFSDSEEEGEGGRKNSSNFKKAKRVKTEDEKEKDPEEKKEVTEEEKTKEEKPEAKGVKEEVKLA
Sequence of HDAC5 (Q9UQL6 whole entry): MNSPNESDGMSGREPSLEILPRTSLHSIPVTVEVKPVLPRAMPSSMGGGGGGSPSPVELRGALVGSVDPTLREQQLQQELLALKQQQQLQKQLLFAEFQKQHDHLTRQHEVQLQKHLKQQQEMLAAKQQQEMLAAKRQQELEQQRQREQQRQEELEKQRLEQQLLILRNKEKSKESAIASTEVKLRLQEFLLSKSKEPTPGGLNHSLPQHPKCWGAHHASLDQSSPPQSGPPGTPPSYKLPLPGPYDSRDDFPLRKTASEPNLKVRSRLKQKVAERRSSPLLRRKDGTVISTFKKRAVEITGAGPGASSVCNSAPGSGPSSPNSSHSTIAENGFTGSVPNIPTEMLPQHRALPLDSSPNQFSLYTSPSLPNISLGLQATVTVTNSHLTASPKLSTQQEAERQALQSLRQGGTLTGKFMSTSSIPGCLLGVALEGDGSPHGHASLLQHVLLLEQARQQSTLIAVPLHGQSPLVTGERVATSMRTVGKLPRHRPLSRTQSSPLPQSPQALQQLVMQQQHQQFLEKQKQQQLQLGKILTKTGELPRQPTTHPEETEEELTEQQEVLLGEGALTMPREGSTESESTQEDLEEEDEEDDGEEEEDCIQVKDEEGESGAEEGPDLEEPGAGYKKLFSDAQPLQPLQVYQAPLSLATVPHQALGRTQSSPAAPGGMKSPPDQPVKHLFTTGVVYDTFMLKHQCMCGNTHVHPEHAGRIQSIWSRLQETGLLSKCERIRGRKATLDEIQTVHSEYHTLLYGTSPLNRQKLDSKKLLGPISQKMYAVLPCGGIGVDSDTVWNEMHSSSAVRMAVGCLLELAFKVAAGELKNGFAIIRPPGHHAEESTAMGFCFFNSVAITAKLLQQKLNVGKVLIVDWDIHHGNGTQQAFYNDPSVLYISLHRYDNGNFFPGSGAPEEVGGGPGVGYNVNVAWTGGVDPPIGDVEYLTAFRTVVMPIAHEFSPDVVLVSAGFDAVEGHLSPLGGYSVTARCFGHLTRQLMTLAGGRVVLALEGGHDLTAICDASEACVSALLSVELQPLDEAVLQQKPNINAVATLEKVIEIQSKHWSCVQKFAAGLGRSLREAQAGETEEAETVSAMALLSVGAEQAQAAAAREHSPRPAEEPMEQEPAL
Sequence of HDAC9 (Q9UKV0 whole entry, canonical isoform): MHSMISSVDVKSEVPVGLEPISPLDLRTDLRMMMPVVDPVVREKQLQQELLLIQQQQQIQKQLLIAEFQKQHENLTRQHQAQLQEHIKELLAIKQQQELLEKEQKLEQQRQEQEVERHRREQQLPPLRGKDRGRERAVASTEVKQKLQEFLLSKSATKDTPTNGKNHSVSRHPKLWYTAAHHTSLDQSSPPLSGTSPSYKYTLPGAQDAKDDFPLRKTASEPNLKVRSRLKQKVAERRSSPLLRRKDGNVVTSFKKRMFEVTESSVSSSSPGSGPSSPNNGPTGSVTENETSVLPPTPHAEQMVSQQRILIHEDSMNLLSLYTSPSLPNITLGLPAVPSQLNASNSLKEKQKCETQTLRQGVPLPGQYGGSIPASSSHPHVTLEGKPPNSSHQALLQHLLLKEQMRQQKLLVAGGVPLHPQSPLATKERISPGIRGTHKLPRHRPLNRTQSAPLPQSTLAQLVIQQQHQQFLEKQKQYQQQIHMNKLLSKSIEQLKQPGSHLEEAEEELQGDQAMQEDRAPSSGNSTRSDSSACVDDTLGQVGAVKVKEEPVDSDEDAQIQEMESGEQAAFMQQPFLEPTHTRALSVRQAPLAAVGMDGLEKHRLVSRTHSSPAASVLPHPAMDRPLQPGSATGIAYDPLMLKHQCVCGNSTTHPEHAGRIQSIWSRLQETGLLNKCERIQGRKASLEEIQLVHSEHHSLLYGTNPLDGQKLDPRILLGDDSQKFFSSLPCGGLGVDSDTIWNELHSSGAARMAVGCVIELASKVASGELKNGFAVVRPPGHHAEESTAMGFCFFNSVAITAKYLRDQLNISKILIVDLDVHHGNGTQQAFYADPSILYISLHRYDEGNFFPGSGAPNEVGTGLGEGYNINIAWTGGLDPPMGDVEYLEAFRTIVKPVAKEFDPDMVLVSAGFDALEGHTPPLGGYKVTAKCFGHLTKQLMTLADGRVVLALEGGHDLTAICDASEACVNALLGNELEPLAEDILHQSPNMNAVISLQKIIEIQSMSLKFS
Sequence of HDAC2 (Q92769 whole entry, canonical isoform): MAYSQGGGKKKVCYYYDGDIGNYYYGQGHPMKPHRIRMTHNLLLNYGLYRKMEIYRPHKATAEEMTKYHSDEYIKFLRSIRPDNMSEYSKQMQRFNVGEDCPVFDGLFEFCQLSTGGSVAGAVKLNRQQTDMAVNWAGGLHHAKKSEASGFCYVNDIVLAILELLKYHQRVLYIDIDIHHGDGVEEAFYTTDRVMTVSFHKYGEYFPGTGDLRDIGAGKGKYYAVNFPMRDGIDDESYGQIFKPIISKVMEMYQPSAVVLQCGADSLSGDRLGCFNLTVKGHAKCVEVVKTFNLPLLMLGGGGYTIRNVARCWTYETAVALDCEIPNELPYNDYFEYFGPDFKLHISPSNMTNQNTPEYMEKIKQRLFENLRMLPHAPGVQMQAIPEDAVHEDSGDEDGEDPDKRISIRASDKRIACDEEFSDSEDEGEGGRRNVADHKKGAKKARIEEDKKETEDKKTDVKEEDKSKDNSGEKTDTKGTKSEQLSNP
Sequence of HDAC4 (P56524 whole entry, the tested form may be a part): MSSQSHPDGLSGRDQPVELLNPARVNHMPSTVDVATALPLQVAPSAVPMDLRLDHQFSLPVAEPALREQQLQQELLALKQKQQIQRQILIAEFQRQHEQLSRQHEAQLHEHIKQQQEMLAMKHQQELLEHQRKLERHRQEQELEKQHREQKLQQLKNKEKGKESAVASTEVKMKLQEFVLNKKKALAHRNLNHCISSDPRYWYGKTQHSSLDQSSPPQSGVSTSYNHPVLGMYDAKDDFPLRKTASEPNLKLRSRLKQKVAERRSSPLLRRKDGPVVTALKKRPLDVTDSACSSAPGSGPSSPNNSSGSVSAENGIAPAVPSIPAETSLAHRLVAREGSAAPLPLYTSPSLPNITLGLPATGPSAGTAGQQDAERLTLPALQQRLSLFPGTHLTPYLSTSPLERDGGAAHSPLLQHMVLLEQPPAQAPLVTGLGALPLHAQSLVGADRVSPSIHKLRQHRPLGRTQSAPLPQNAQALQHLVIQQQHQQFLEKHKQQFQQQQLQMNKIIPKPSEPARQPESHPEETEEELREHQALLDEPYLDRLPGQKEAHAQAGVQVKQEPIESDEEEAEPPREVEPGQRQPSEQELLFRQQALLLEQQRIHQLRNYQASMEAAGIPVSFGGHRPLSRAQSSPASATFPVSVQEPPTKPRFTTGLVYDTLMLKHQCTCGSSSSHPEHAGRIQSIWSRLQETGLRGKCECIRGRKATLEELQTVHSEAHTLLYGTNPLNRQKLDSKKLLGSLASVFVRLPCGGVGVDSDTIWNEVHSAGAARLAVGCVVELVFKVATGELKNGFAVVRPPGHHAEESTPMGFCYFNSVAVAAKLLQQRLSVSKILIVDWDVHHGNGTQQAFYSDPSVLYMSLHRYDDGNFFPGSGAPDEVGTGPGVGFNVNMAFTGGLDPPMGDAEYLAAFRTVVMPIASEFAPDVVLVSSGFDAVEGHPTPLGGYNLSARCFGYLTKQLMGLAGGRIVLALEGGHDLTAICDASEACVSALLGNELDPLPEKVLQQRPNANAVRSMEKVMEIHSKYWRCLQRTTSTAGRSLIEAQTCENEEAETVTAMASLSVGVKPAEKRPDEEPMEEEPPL
Procedure for HDAC1: as §2
Procedure for HDAC2: as §2
Procedure for HDAC4: as §2
Procedure for HDAC5: as §2
Procedure for HDAC6: as §2
Procedure for HDAC7: as §2
Procedure for HDAC8: as §2
Procedure for HDAC9: as §2
Procedure for HUVEC cells: Then, cell viability was measured by the mitochondrial MTT reduction activity assay.

For the molecule `O=C(CCCCCCC(=O)Nc1ccccc1)NO` [SAHA, suberanilohydroxamic acid, reference compound], the GI50 was 920 ± 50 nM in the data set on HT-29 cells [1] (48 h), 2620 ± 1370 nM in the data set with A549, 440 ± 30 nM with HCT116 and 950 ± 40 nM in the data set with Hep3B. In addition, the IC50 in [2] was 29600 ± 2620 nM.
Consider `COc1ccc(S(=O)(=O)N2CCc3cc(C=CC(=O)NO)cc(N)c32)cc1` [MPT0G030, 3-[7-amino-1-(4-methoxy-benzenesulfonyl)-2,3-dihydro-1H-indol-5-yl]-N-hydroxy-acrylamide], for which, in the data set on HT-29 tumor xenograft, the Body weight result was “not affected”. In the data set with HUVEC cells, the “IC50 in normal (HUVEC) cells relative to IC50 in HT-29 cells” value was “about thirty times higher”. For the same molecule, the IC50 is 242 ± 47.6 nM on HDAC2; > 10000 nM on HDAC7; > 5000 nM at HDAC5; 985 ± 60 nM in the data set on HT-29 cells [3]; > 10000 nM at HDAC9; 6450 ± 1390 nM in [2]. Also, the IC50 at HDAC4 was > 10000 nM; on HDAC8, 3340 ± 130 nM; at HDAC6, 4368 ± 42.1 nM; at HDAC1, 75.1 ± 4.65 nM. The “Ratio: fold x IC50 relative to HDAC1 isoform” value at HDAC2 (HDAC2) is reported as 3.22; at HDAC7 (HDAC7), >130; at HDAC5 (HDAC5), >60; on HDAC9 (HDAC9), >130; at HDAC8 (HDAC8), 44.55; at HDAC6 (HDAC6) it was 58.19. The “Ratio: fold x IC50 relative to HDAC1 isoform” value at HDAC1 (HDAC1) worked out at 1. Further, the GI50 came to 170 ± 10 nM in the data set with PC3; 145 ± 10 nM in the data set with HT-29 cells [1] (Homo sapiens, HT-29, 48 h); 180 ± 10 nM with A549 (Homo sapiens); 110 ± 20 nM in the data set on HCT116 (Homo sapiens, HCT-116); 140 ± 10 nM in the data set with Hep3B (Homo sapiens). The “Induction of cell apoptosis (cytoplasmic histone-associated DNA fragments)” value with HT-29 cells [4] was “more effective on inducing cell apoptosis”. At HDAC6 (HDAC6), the “HDAC6 IC50 of MPT0G030 as fold x IC50 of SAHA” value was > 55 fold.
Turning to `Nc1ccccc1NC(=O)c1ccc(CNC(=O)OCc2cccnc2)cc1` [entinostat], the GI50 in the data set with HT-29 cells [5] is 1290 nM.

Source of the values: publication PMC4170623, “A novel class I HDAC inhibitor, MPT0G030, induces cell apoptosis and differentiation in human colorectal cancer cells via HDAC1/PKCδ and E-cadherin” (Oncotarget, 2014).
